Consider three molecules from patent US20090325863A1, “Somatostatin analogs and IGF-I inhibition for breast cancer prevention” (priority 2008, published 2009).

In assay [1] the test system is mammary development. Description: Mammary development of CD female mice (TEB, branch, area in whole mounts). It is filed as in vivo. The method, then:
The effect of PQ401 and Somatostatin 14 (SS14) on mammary development of CD female mice was determined. FIG. 10 depicts control animals at 21 and 28 days versus 28 day old animals treated with PQ401 for 7 days and 28 day old animals treated with SS14 for 7 days.

Assay [2] relates to mammary hyperplasia induced by hGH and E2. In words: Mammary hyperplasia model induced by hGH and E2, counts in histological sections. In kind it is in vivo, rat. To be noted: for Total# / Mild# / Moderate# / Florid# / DH#: Table 3; for Total#: SOM230 30 mcg/h/kg, Octreotide 30 mcg/hr/kg, Tamoxifen 30 mg/21 day release pellet, GH + E2 control 88.3 ± 6.3; for Mild# / Moderate# / Florid# / DH#: same doses; for Mild#: GH + E2 control 4.4 ± 0.6; for Moderate#: GH + E2 control 5.3 ± 0.6; for Florid#: GH + E2 control 10 ± 0.7; for DH#: GH + E2 control 19.7 ± 1.5; for inhibitory effect on hyperplasia compared with SOM230 alone (in words): hGH+E2 model, 7 days, no dose response comparison. The text has this:
To test whether SOM230, a drug that inhibits IGF-I action on the breast, was effective, we implemented a model of hyperplasia and then determined whether the hyperplasia could be inhibited by SOM230. We administered human growth hormone (600 mcg in alzet pumps) for a week, and gave this together with estradiol (an estrogen). At the end of 7 days florid hyperplasia developed. Mammary hyperplasia was modeled by treating hypophysectomized, oophorectomized female rats with high doses human growth hormone (hGH) (600 μg in Alzet pumps) and follicular phase concentrations of estradiol (E2) administered in silastic capsules for 7 days. In the absence of hGH, these animals would not undergo mammary development. In animals receiving E2 alone, there was virtually no hyperplasia. When hGH was added to E2 there were more glands (42.2±1.4 vs. 71.9±5.4, E2 vs. E2+hGH, respectively). There was no florid hyperplasia with E2 treatment. When hGH was given also, 26.6% of the glands were hyperplastic, with 50% of those being floridly hyperplastic, 7% moderate hyperplasia and 5.9% mild hyperplasia. […] This is shown in histological sections (FIG. 1), graphically (FIG. 2) and in tabular form below (TABLE 1).
Background: Antiestrogens or aromatase inhibitors are used for breast cancer chemoprevention. These treatments cause unpleasant side effects including hot flashes and vaginal dryness. We have previously shown that IGF-I is required to permit estrogen and progesterone action in the mammary gland. […] Menopausal symptoms would not likely to occur with SOM230 since estrogen is not lowered. Material and Methods: We have approached this issue in several ways. 1) We developed a model of hyperplasia in hypophysectomized and oophorectomized female rats. Hyperplasia was induced by treatment with 600 mcg hGH and follicular phase concentrations of estradiol. Hyperplasia was assessed histologically in sections of mammary gland. 2) To assess translatability to humans we assessed cell proliferation and apoptosis in normal human breast from reduction mammoplasties and samples of usual hyperplasia. 3) We also determined availability of SST receptors in samples of atypical ductal hyperplasia and DCIS, and 4) We have begun to determine whether SOM230 will prevent hyperplasia in humans at risk for breast cancer as it does in rats.
The degree of hyperplasia was analyzed in 3 histological sections at different levels in 3 test animals given GH+E2. The different types of hyperplasia were counted. For example, the total mean number of ducts was 88.3. Of those ducts, there were 19.7 or 22.3% of total ducts that were hyperplastic. The breakdown was a mean of 10 ducts with florid hyperplasia (lumen is distended and mostly obliterated by epithelial cells), a mean of 5.3 ducts with moderate hyperplasia (an increase in cell layers to >4 cells thick), and a mean of 4.4 characterized as mild hyperplasia (no more than 4 cell thickness).
There were 4 additional treatment groups and one E2 treated control group.

For assay [3], the system named is development of breast cancer. To be noted: women with hyperplastic lesions of the breast; cited from earlier work.
In assay [4] the test system is hGH induced TEB formation. Description: Hyperplastic terminal endbuds (TEBs) in mammary gland whole mounts, hGH+E2 model. To be noted: hGH+E2, 7 days; reduced from 86.5 (86) TEBs in hGH+E2 control. It is filed as in vivo, rat. The text has this: At the end of 7 days one lumbar mammary gland was removed for whole mount analysis and the other for histological analysis. Hyperplastic TEBs were counted in the whole mounts. […] Representative photomicrographs of the whole mounts are provided in FIG. 5 and suppression by the different treatments is shown graphically in FIG. 6.

Assay [5] concerns pYIRS-1 (phosphorylated IRS-1), product of IGF-I action. Description: Immunostaining for phosphorylated IRS-1 in mammary gland, hGH+E2 model. In kind it is in vivo, rat. To be noted: hGH+E2 treated animals; staining most intense with hGH+E2. The text has this: FIG. 12 depicts immunostaining for pYIRS-1 (phosphorylated IRS-1) in a representative E2 treated control (upper left), an hGH+E2 treated animal (upper right), an hGH+E2+SOM230 treated animal (lower left) and an hGH+E2+tamoxifen treated animal (lower right). The intensity of staining parallels IGF-I action as phosphorylated IRS-1 is a product of IGF-I action. In this study, staining (brown color) was most intense in response to hGH+E2 and was inhibited by both SOM230 and tamoxifen. […] This reflection of inhibition of IGF-I activity also supports the greater inhibitory effect of SOM230 over that of tamoxifen.

“Also recorded” adds a separate entry of the source. Marks after values point to notes of the source that are not given here. Bridges are numbered along the chain shown (N, C = ends). Where no end group is shown, it is not given here.

For “Somatostatin 14: Somatostatin 14 (SS14) (AGCKNFFWKTFTSC; disulfide 3-14; ends not checked; UniProt P61278 103-116, looked up)”, the “TEB (number)” value in assay [1] (28 day old CD female mice treated 7 days, PQ401 100/kgbw ip thrice weekly, SS14 15 mcg/hr/Kg Alzet pump, 28d control 18.6 ± 1.5) stood at 18.5 ± 1.5. This molecule also yielded an area % in assay [1] (same treatment, 28d control 52.2 ± 2.0, 21d control 23 ± 3.2) of 36.3 ± 6.2%.
Take `CC/C(=C(\c1ccccc1)c1ccc(OCCN(C)C)cc1)c1ccccc1` [Tamoxifen]: in assay [2], the “Total#” value stood at 74.2 ± 7.7, the “Mild#” value came to 3.6 ± 0.4, the “Moderate#” value amounted to 4.8 ± 0.6 and the “Florid#” value is 4.5 ± 0.6^e. Also, in assay [2], the “DH#” value amounted to 12.4 ± 1.5 and the “inhibitory effect on hyperplasia compared with SOM230 alone (in words)” value is recorded as “significantly less effective than SOM230”. Further, the “inhibitory effect on hyperplasia compared with SOM230 alone (in words)” value in assay [2] (listed as tamoxifen) was “significantly lower than SOM230 alone”. Besides, the “prevention of the development of cancer” value in assay [3] was “about 50%”. Besides, in assay [4], the “number of hyperplastic TEBs in whole mounts” value was found to be 49. Also, the “intensity of pYIRS-1 immunostaining” value in assay [5] is given as “inhibited; also recorded: more intense than in the SOM230 treated one”.
Take Octreotide: in assay [2], the “Total#” value was 76.3 ± 7.3, the “Mild#” value was found to be 4.6 ± 0.8, the “Moderate#” value amounted to 5.8 ± 1.0 and the “Florid#” value is reported as 5.0 ± 0.8^e. Besides, in assay [2], the “DH#” value came out at 15.4 ± 2.6 and the “inhibitory effect on hyperplasia compared with SOM230 alone (in words)” value is given as “significantly lower than SOM230 alone”. The “number of hyperplastic TEBs in whole mounts” value in assay [4] was found to be 60.
